From patent US12678412B2, “Substituted tolans for the modulation of microbial colonization” (BioMendics, LLC, priority 2017, dated 2026)

Columns and labels:
Assay type in all cases: cell-based
S. typhimurium TA97a = experiment: Dose range finding colony forming assay, strain TA97a with metabolic activation
Description: (§1) A series of dose range finding assays were performed with five bacterial strains, S. typhimurium TA97a, TA98, TA100, TA1535, and E. coli WP2 uvrA pKM101, with and without metabolic activation at three plates per dose. The following doses, along with positive and negative controls, were tested: 5000, 2500, 1250, 500, 250, 125, 50, 20, 10, 5, 2, 1, and 0.2 μg/plate. The plates were evaluated for toxicity (a decrease in plate counts with increasing dose and/or a visible thinning of the background lawn) and for precipitation of the test article. Metabolic activation was included in some samples by adding phenobarbital/benzoflavone-induced rat liver S9 fractions with cofactors (S9 mix). Prior to use, freshly thawed aliquots of rat liver S9 were mixed with a sterile cofactor mix. The S9 mix contains a 10% liver S9 concentration and was refrigerated or stored on ice until used. When testing with metabolic activation, the S9 mix was used in the assay tube in place of phosphate buffer.
(§2) Dosing formulations were prepared to deliver all doses in a constant volume of 0.1 mL. The highest dose was prepared from test article weighed to the nearest 0.1 mg and the remaining formulations were prepared as serial dilutions from the high dose stock formulation. Using a permanent marking pen or computer printed labels, assay plates were labeled with the project and study numbers and the date. Assay plates and tubes were labeled with a unique identifier, which was used to match the assay tubes with the properly identified minimal glucose agar plate.
(§3) The pre-incubation method was used to perform the assay. The assay mix consisted of 0.1 mL of the test article formulation or control article, 0.5 mL S9 mix or phosphate buffer, and 0.1 mL of bacterial culture. Assay tubes were incubated at 37±1° C. with gentle agitation for 20±1 minutes, then 2.0-2.5 mL top agar was added to the assay mix and the top agar/assay mix poured onto appropriately labeled minimal glucose agar plates. Once the top agar hardened, the plates were inverted and incubated at 37±1° C. for 48±2 hours. Plates were counted with the Sorcerer (v. 2.2)/Ames Study Manager (v. 1.2.4) system from Perceptive Instruments (Suffolk, UK). With this system, plate counts are automatically transferred from the plate imager (Sorcerer) to a Study Manager spreadsheet, and the data are stored in a secure manner on an Oracle database. Some plates were hand counted, e.g., if sample precipitate interferes with automatic counting or toxicity results in the formation of microcolonies, in which case, counts for these plates were entered into the spreadsheet manually. Plates were scored also with the extent of colonization by a post fix code.

S. typhimurium TA100 = experiment: Dose range finding colony forming assay, strain TA100 with metabolic activation
Description: as §1, §2, §3

Acinetobacter baumannii = experiment: Colony forming assay, 24 h plate assay, Acinetobacter baumannii; details: Transcutol formulation, FIG. 11
Description: Proliferating cultures of Acinetobacter baumannii were used in a colony forming assay. Frozen stock cultures of Acinetobacter baumannii were thawed and grown overnight in tryptic soy broth (TSB) with shaking at 37° C. The overnight culture (0.5-1.0 mL) was added to 100 mL TSB and grown at 37° C. with shaking and monitored for an optical density of 0.20-0.38 to obtain a final inoculum suspension of approximately 10^8 CFU/mL.
BM3103 was dissolved into Transcutol (diethylene glycol monoethyl ether) at 2.5% w/v and vortexed until dissolved. This concentration was then serial diluted to achieve the remaining concentrations tested. Before plating, 100 μL of the final inoculum (10^8 CFU/mL) was mixed with 20 μL TSB broth and 80 μL of BM3103 doses or vehicle. Tobramycin, 600 μg/mL, served as the positive control. The final plating concentrations for BM3103 were 1, 0.5, 0.25, and 0.1% w/v (44 mM, 22 mM, 11 mM, 4 mM) BM3103. Vehicle and BM3103 formulations contained matching final concentration of 40% v/v Transcutol.
The Transcutol formulations combined with the inoculum were plated onto TSB agar plates. The plates were grown at 37° C. for 24 h, imaged, and the bacteria colonies were counted. The experiment was done four times at each concentration level described above. Colony counts for each treatment were tabulated and the Log of the colony forming units/mL (Log CFU/mL) were determined. The mean and the standard error of the mean were calculated for each treatment.

How did the Colony forming units/plate (S. typhimurium TA97a; 0.2 μg/plate) turn out when COc1ccc(C#Cc2ccc(O)cc2)cc1 [BM3103, 4-hydroxy-4′-methoxytolan] was run?
The Colony forming units/plate was 89.0 colony forming units/plate.

What about the Individual colony counts (S. typhimurium TA97a; 0.2 μg/plate) of the same compound?
Its Individual colony counts is 89.

What about the Colony forming units/plate (S. typhimurium TA97a; 1 μg/plate) of the same compound?
The Colony forming units/plate was 122.0 colony forming units/plate.

And the Individual colony counts (S. typhimurium TA97a; 1 μg/plate)?
Its Individual colony counts is 122.

What about the Colony forming units/plate (S. typhimurium TA97a; 2 μg/plate) of the same compound?
The Colony forming units/plate was 78.0 colony forming units/plate.

And the Individual colony counts (S. typhimurium TA97a; 2 μg/plate)?
Its Individual colony counts is 78.

And the Colony forming units/plate (S. typhimurium TA97a; 5 μg/plate)?
The Colony forming units/plate was 78.0 colony forming units/plate.

And the Individual colony counts (S. typhimurium TA97a; 5 μg/plate)?
The Individual colony counts was 78.

What about the Colony forming units/plate (S. typhimurium TA97a; 10 μg/plate) of the same compound?
Its Colony forming units/plate is 77.0 colony forming units/plate.

And the Individual colony counts (S. typhimurium TA97a; 10 μg/plate)?
Its Individual colony counts is 77.0.

What about the Colony forming units/plate (S. typhimurium TA97a; 20 μg/plate) of the same compound?
The Colony forming units/plate was 0.0 colony forming units/plate.

And the Individual colony counts (S. typhimurium TA97a; 20 μg/plate)?
Its Individual colony counts is 0.

What about the Colony forming units/plate (S. typhimurium TA97a; 50 μg/plate) of the same compound?
The Colony forming units/plate was 0.0 colony forming units/plate.

What about the Individual colony counts (S. typhimurium TA97a; 50 μg/plate) of the same compound?
The Individual colony counts was 0.

And the Colony forming units/plate (S. typhimurium TA97a; 125 μg/plate)?
The Colony forming units/plate was 0.0 colony forming units/plate.

What about the Individual colony counts (S. typhimurium TA97a; 125 μg/plate) of the same compound?
Its Individual colony counts is 0.

What about the Colony forming units/plate (S. typhimurium TA97a; 250 μg/plate) of the same compound?
Its Colony forming units/plate is 0.0 colony forming units/plate.

What about the Individual colony counts (S. typhimurium TA97a; 250 μg/plate) of the same compound?
The Individual colony counts was 0.

What about the Colony forming units/plate (S. typhimurium TA97a; 500 μg/plate) of the same compound?
Its Colony forming units/plate is 0.0 colony forming units/plate.

And the Individual colony counts (S. typhimurium TA97a; 500 μg/plate)?
Its Individual colony counts is 0.

What about the Colony forming units/plate (S. typhimurium TA97a; 1250 μg/plate) of the same compound?
Its Colony forming units/plate is 0.0 colony forming units/plate.

What about the Individual colony counts (S. typhimurium TA97a; 1250 μg/plate) of the same compound?
The Individual colony counts was 0.

What about the “Plate postfix code (individual colony counts)” value (“Plate postfix code” for short) (S. typhimurium TA97a; 1250 μg/plate) of the same compound?
Its value is “A P”.

And the Colony forming units/plate (S. typhimurium TA97a; 2500 μg/plate)?
The Colony forming units/plate was 0.0 colony forming units/plate.

And the Individual colony counts (S. typhimurium TA97a; 2500 μg/plate)?
Its Individual colony counts is 0.

And the Colony forming units/plate (S. typhimurium TA97a; 5000 μg/plate)?
Its Colony forming units/plate is 0.0 colony forming units/plate.

What about the Individual colony counts (S. typhimurium TA97a; 5000 μg/plate) of the same compound?
Its Individual colony counts is 0.

And the Colony forming units/plate (S. typhimurium TA100; 0.2 μg/plate)?
Its Colony forming units/plate is 78 colony forming units/plate.

And the Individual colony counts (S. typhimurium TA100; 0.2 μg/plate)?
The Individual colony counts was 78.

And the Colony forming units/plate (S. typhimurium TA100; 1 μg/plate)?
Its Colony forming units/plate is 56.0 colony forming units/plate.

And the Individual colony counts (S. typhimurium TA100; 1 μg/plate)?
Its Individual colony counts is 56.

What about the Colony forming units/plate (S. typhimurium TA100; 2 μg/plate) of the same compound?
Its Colony forming units/plate is 36.0 colony forming units/plate.

And the Individual colony counts (S. typhimurium TA100; 2 μg/plate)?
Its Individual colony counts is 360.

What about the Colony forming units/plate (S. typhimurium TA100; 5 μg/plate) of the same compound?
The Colony forming units/plate was 74.0 colony forming units/plate.

What about the Individual colony counts (S. typhimurium TA100; 5 μg/plate) of the same compound?
The Individual colony counts was 74.

And the Colony forming units/plate (S. typhimurium TA100; 10 μg/plate)?
Its Colony forming units/plate is 38.0 colony forming units/plate.

And the Individual colony counts (S. typhimurium TA100; 10 μg/plate)?
Its Individual colony counts is 38.

And the “Plate postfix code” value (S. typhimurium TA100; 10 μg/plate)?
Its value is “S T”.

What about the Colony forming units/plate (S. typhimurium TA100; 20 μg/plate) of the same compound?
Its Colony forming units/plate is 54.0 colony forming units/plate.

What about the Individual colony counts (S. typhimurium TA100; 20 μg/plate) of the same compound?
Its Individual colony counts is 54.

And the Colony forming units/plate (S. typhimurium TA100; 50 μg/plate)?
Its Colony forming units/plate is 0.0 colony forming units/plate.

And the Individual colony counts (S. typhimurium TA100; 50 μg/plate)?
The Individual colony counts was 0.

What about the Colony forming units/plate (S. typhimurium TA100; 125 μg/plate) of the same compound?
Its Colony forming units/plate is 0.0 colony forming units/plate.

What about the Individual colony counts (S. typhimurium TA100; 125 μg/plate) of the same compound?
Its Individual colony counts is 0.

And the Colony forming units/plate (S. typhimurium TA100; 250 μg/plate)?
Its Colony forming units/plate is 0.0 colony forming units/plate.

What about the Individual colony counts (S. typhimurium TA100; 250 μg/plate) of the same compound?
The Individual colony counts was 0.

And the Colony forming units/plate (S. typhimurium TA100; 500 μg/plate)?
The Colony forming units/plate was 0.0 colony forming units/plate.

And the Individual colony counts (S. typhimurium TA100; 500 μg/plate)?
The Individual colony counts was 0.

What about the Colony forming units/plate (S. typhimurium TA100; 1250 μg/plate) of the same compound?
The Colony forming units/plate was 0.0 colony forming units/plate.

And the Individual colony counts (S. typhimurium TA100; 1250 μg/plate)?
The Individual colony counts was 0.

And the “Plate postfix code” value (S. typhimurium TA100; 1250 μg/plate)?
Its value is “A P”.

And the Colony forming units/plate (S. typhimurium TA100; 2500 μg/plate)?
Its Colony forming units/plate is 0.0 colony forming units/plate.

And the Individual colony counts (S. typhimurium TA100; 2500 μg/plate)?
The Individual colony counts was 0.

And the “Plate postfix code” value (S. typhimurium TA100; 2500 μg/plate)?
The value was “A P”.

And the Colony forming units/plate (S. typhimurium TA100; 5000 μg/plate)?
The Colony forming units/plate was 0.0 colony forming units/plate.

And the Individual colony counts (S. typhimurium TA100; 5000 μg/plate)?
Its Individual colony counts is 0.

And the “Plate postfix code” value (S. typhimurium TA100; 5000 μg/plate)?
The value was “A P”.

What about the “Reduction of Acinetobacter baumannii bacterial counts” value (“Reduction” for short) (Acinetobacter baumannii; 0.1%) of the same compound?
The value was “no reduction”.

What about the “Reduction” value (Acinetobacter baumannii; 0.25%) of the same compound?
The value was “slight reduction”.

What about the “Reduction” value (Acinetobacter baumannii; 0.5%) of the same compound?
Its value is 4 fold.

What about the “Reduction” value (Acinetobacter baumannii; 1%) of the same compound?
Its value is “almost a complete reduction”.
